Patent publication US8124793B2, “Derivatives of ethylene methanedisulfonate as cancer chemotherapeutic agents” (priority 2007, dated 2012)

Key:
Type in all cases: cell-based
MALME-3M = test: NCI screen, growth of human tumor cells: Melanoma MALME-3M; conditions: MALME-3M, 10^−4 molar
Protocol: (§1) In the NCI screening process, each compound was tested and described by a minimum of 60 data points. The test data include, but are not limited to the type of cancer, the molar concentration used in the screen, and the percent growth of the cancer. In some cases, NMR and elemental analysis were used for structural assignment.

SF-539 = test: NCI screen, growth of human tumor cells: CNS Cancer SF-539; conditions: SF-539, 10^−4 molar
In short: (§2)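 The NCI screen tests each compound on human cancer cell lines and reports percent growth. Concentrations are given in molar units; the number of data points per compound is sixty at minimum.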

HCT-116 = test: NCI screen, growth of human tumor cells: Colon Cancer HCT-116; conditions: HCT-116 (Colon Cancer), 10^−4 molar
In short: as §2

SR = test: NCI screen, growth of human tumor cells: Leukemia SR; conditions: SR (Leukemia), 10^−4 molar
In short: as §2

human cancer cells = test: NCI screen summary over the cancers tested (negative growth of human cancer cells); conditions: cancers with negative growth / cancers tested
Protocol: as §1
The derivatives in the tables are grouped using the same category as in the tables 1-6.

HS 578T = test: NCI screen, growth of human tumor cells: Breast Cancer HS 578T; conditions: HS 578T (Breast Cancer), 10^−4 molar
In short: as §2

SF-295 = test: NCI screen, growth of human tumor cells: CNS Cancer SF-295; conditions: SF-295, 10^−4 molar
In short: as §2

OVCAR-5 = test: NCI screen, growth of human tumor cells: Ovarian Cancer OVCAR-5; conditions: OVCAR-5, 10^−4 molar
Protocol: as §1

MCF 7 = test: NCI screen, growth of human tumor cells: Breast Cancer MCF 7; conditions: MCF 7 (Breast Cancer), 10^−4 molar
Protocol: as §1

COLO205 = test: NCI screen, growth of human tumor cells: Colon Cancer COLO205; conditions: COLO205, 10^−4 molar
In short: as §2

SF-268 = test: NCI screen, growth of human tumor cells: CNS Cancer SF-268; conditions: SF-268 (CNS Cancer), 10^−4 molar
In short: as §2

CCRF-CEM = test: NCI screen, growth of human tumor cells: Leukemia CCRF-CEM; conditions: CCRF-CEM (Leukemia), 10^−4 molar
In short: as §2

NCI-H23 = test: NCI screen, growth of human tumor cells: Non-Small Cell Lung NCI-H23; conditions: NCI-H23, 10^−4 molar
In short: as §2

NCI-H522 = test: NCI screen, growth of human tumor cells: Non-Small Cell Lung NCI-H522; conditions: NCI-H522, 10^−4 molar
Protocol: as §1

SN12C = test: NCI screen, growth of human tumor cells: Renal Cancer SN12C; conditions: SN12C (Renal Cancer), 10^−4 molar
In short: as §2

ACHN = test: NCI screen, growth of human tumor cells: Renal Cancer ACHN; conditions: ACHN (Renal Cancer), 10^−4 molar
In short: as §2

NCI-H322M = test: NCI screen, growth of human tumor cells: Non-Small Cell Lung NCI-H322M; conditions: NCI-H322M (Non-Small Cell Lung), 10^−4 molar
Protocol: as §1

SK-MEL-5 = test: NCI screen, growth of human tumor cells: Melanoma SK-MEL-5; conditions: SK-MEL-5, 10^−4 molar
In short: as §2

RXF-393 = test: NCI screen, growth of human tumor cells: Renal Cancer RXF-393; conditions: RXF-393 (Renal Cancer), 10^−4 molar
In short: as §2

RPMI-8226 = test: NCI screen, growth of human tumor cells: Leukemia RPMI-8226; conditions: RPMI-8226 (Leukemia), 10^−4 molar
In short: as §2

SK-OV-3 = test: NCI screen, growth of human tumor cells: Ovarian Cancer SK-OV-3; conditions: SK-OV-3 (Ovarian Cancer), 10^−4 molar
Protocol: as §1

UACC-257 = test: NCI screen, growth of human tumor cells: Melanoma UACC-257; conditions: UACC-257 (Melanoma), 10^−4 molar
Protocol: as §1

NCI-H226 = test: NCI screen, growth of human tumor cells: Non-Small Cell Lung NCI-H226; conditions: NCI-H226, 10^−4 molar
In short: as §2

AS49/ATCC = test: NCI screen, growth of human tumor cells: Non-Small Cell Lung AS49/ATCC; conditions: AS49/ATCC (Non-Small Cell Lung), 10^−4 molar
Protocol: as §1

KM12 = test: NCI screen, growth of human tumor cells: Colon Cancer KM12; conditions: KM12 (Colon Cancer), 10^−4 molar
In short: as §2

U-251 = test: NCI screen, growth of human tumor cells: CNS Cancer U-251; conditions: U-251 (CNS Cancer), 10^−4 molar
In short: as §2

OVCAR-3 = test: NCI screen, growth of human tumor cells: Ovarian Cancer OVCAR-3; conditions: OVCAR-3 (Ovarian Cancer), 10^−4 molar
In short: as §2

HOP-62 = test: NCI screen, growth of human tumor cells: Non-Small Cell Lung HOP-62; conditions: HOP-62 (Non-Small Cell Lung), 10^−4 molar
In short: as §2

BT-549 = test: NCI screen, growth of human tumor cells: Breast Cancer BT-549; conditions: BT-549 (Breast Cancer), 10^−4 molar
In short: as §2

DU-145 = test: NCI screen, growth of human tumor cells: Prostate Cancer DU-145; conditions: DV-145, 10^−4 molar
In short: as §2

HT29 = test: NCI screen, growth of human tumor cells: Colon Cancer HT29
Protocol: as §1

M14 = test: NCI screen, growth of human tumor cells: Melanoma M14; conditions: M14 (Melanoma), 10^−4 molar
In short: as §2

SK-MEL-2 = test: NCI screen, growth of human tumor cells: Melanoma SK-MEL-2; conditions: SK-MEL-2 (Melanoma), 10^−4 molar
Protocol: as §1

UACC-62 = test: NCI screen, growth of human tumor cells: Melanoma UACC-62; conditions: UACC-62, 10^−4 molar
In short: as §2

SK-MEL-28 = test: NCI screen, growth of human tumor cells: Melanoma SK-MEL-28
Protocol: as §1

IGROVI = test: NCI screen, growth of human tumor cells: Ovarian Cancer IGROVI; conditions: IGROVI (Ovarian Cancer), 10^−4 molar
Protocol: as §1

## CC1=C(CC2(C(=O)C(F)(F)C(F)(F)C(F)(F)F)S(=O)(=O)OCCOS2(=O)=O)C(=O)c2ccccc2C1=O [NSC 720683, ethylene perfluorobutyril-(3-methyl-1,4-naphtho-2-quinoyl)-1,1-ethanedisulfonate]
MALME-3M
  % Growth: −87%
SF-539
  % Growth: −67%
HCT-116
  percent of growth of human tumor cells: 22%
SR
  percent of growth of human tumor cells: −22%
Human cancer cells; 10^−5 M conc.
  Percentage of cancers showing negative growth cancers tested: 100%
Human cancer cells; 10^−6 M conc.
  Percentage of cancers showing negative growth cancers tested: 100%
HS 578T
  percent of growth of human tumor cells: −14%
SF-295
  % Growth: −70%
OVCAR-5
  % Growth: −71%
MCF 7
  percent of growth of human tumor cells: −24%
COLO205
  % Growth: −84%
SF-268
  percent of growth of human tumor cells: 1%
CCRF-CEM
  percent of growth of human tumor cells: 5%
NCI-H23
  % Growth: −75%
NCI-H522
  % Growth: −68%
SN12C
  percent of growth of human tumor cells: −37%
ACHN
  percent of growth of human tumor cells: −27%
NCI-H322M
  percent of growth of human tumor cells: 25%
SK-MEL-5
  % Growth: −95%
RXF-393
  percent of growth of human tumor cells: 9%
RPMI-8226
  percent of growth of human tumor cells: 28%
SK-OV-3
  percent of growth of human tumor cells: 24%
UACC-257
  percent of growth of human tumor cells: −18%
NCI-H226
  % Growth: −68%
AS49/ATCC
  percent of growth of human tumor cells: −45%
KM12
  percent of growth of human tumor cells: 26%
U-251
  percent of growth of human tumor cells: 12%
OVCAR-3
  percent of growth of human tumor cells: 30%
HOP-62
  percent of growth of human tumor cells: −28%
BT-549
  percent of growth of human tumor cells: −50%
DU-145
  % Growth: −100%
HT29; HT-29, 10^−4 molar
  % Growth: −100%
HT29; HT-29, 10^−5 molar
  % Growth: −37%
HT29; HT-29, 10^−6 molar
  % Growth: −6%
HT29; HT-29, 10^−7 molar
  % Growth: 23%
M14
  percent of growth of human tumor cells: −56%
SK-MEL-2
  percent of growth of human tumor cells: −57%
UACC-62
  % Growth: −85%
SK-MEL-28; SK-MEL-28, 10^−4 molar
  % Growth: −85%
SK-MEL-28; SK-MEL-28, 10^−5 molar
  % Growth: −55%
SK-MEL-28; SK-MEL-28, 10^−6 molar
  % Growth: −31%
SK-MEL-28; SK-MEL-28, 10^−7 molar
  % Growth: 31%
SK-MEL-28; SK-MEL-28, 10^−8 molar
  % Growth: 74%
IGROVI
  percent of growth of human tumor cells: 27%
